According to US20230139883A1, “Peptides for Inducing Differentiation” (Shimadzu Corporation, priority 2020, published 2023):

B1: 100nX-Dimer: a dimerized peptide of 100nX (SEQ ID NO: 9) (peptide)
chain 1: CAAELAALEAELAALEGVPGDNNGTRGKLYHLKNKLHRLKNAC
chain 2: CAAELAALEAELAALEGVPGDNNGTRGKLYHLKNKLHRLKNAC
modifications: dimerized

How the values were obtained:
[1] = test system: FGFR2; test: Yeast display screening (MACS/FACS) against FGFR2 with Sanger sequencing of single colonies; type: binding; details: frequency of the clone among randomly selected single colonies after FGFR2 screening
Protocol: Cells were then charged to an LS column attached to a magnetic stand. In order to remove yeast cells not bound to FGFR2, 7 mL of PBSM was flowed through the LS column twice. The LS column was then removed from the magnetic stand and FGFR2-binding yeast clones were collected by flowing SDCAA medium and cultured. The above operations were deemed as one round, and a total of three rounds were performed (Table 10). Next, yeast clones with high binding activity were screened from the yeast collected by MACS, using FACS (Fluorescence-activated cell sorting). FGFR2-Fc and mouse anti-FLAG antibodies were bound to the yeast library, followed by binding of anti-mouse IgG-Alexa488 and anti-human Fc antibody-Alexa647. […] The binding of the peptide to FGFR2 can also be detected by the fluorescence intensity of Alexa647. With that, yeast clones with high fluorescence intensities of Alexa488 and Alexa647 were collected by FACS cell sorter (BD FACS AriaIII).
The phage library eluted after panning of Example 7 (Table 9: Input phage (Round 4)) was subjected to Human IgG Fc-immobilized plate, and negative selection was performed by collecting unbound phages. The phage library was then acted to FGFR3 prepared to concentrations of 100 nM, 10 nM, and 1 nM. Bound phages were then collected. The genomic DNA of the collected phages was extracted, samples were prepared according to Illumina's protocol for Miseq, and a comprehensive analysis of the phage genomic DNA was performed. Among the sequences obtained, 20 sequences high incidence rates were selected (Table 11). The yeast cells acquired in the screening of Example 8 were seeded onto SDCAA agar plates and cultured. Fourteen single colonies formed on the agar plates were randomly selected, and for each clone, the peptide DNA sequence incorporated into the yeast expression plasmid was analyzed using the Sanger method (Table 12).

[2] = test system: FGFR3; test: Phage display selection against FGFR3 with Miseq analysis of the bound phages; type: binding; details: for 1 nM Num. of reads: phage library after panning Round 4, bound to 1 nM FGFR3; for 10 nM Num. of reads: phage library after panning Round 4, bound to 10 nM FGFR3; for 100 nM Num. of reads: phage library after panning Round 4, bound to 100 nM FGFR3; for 1 nM Ranking / 10 nM Ranking / 100 nM Ranking: rank by number of reads; for 1 nM Ranking: 1 nM FGFR3; for 10 nM Ranking: 10 nM FGFR3; for 100 nM Ranking: 100 nM FGFR3
Protocol: The collected phage library was mixed with 100 nM of FGFR3 solution and allowed to react overnight at 4° C. (Table 9: Panning Round 1). After the reaction, the binding phages were captured by magnetic beads modified with protein A, and washed three times with PBS-T, followed by eluting the bound phages with Gly-HCl (pH 2.0). After neutralizing with 2M Tris, the pages were infected to E. coli (TG1 strain). After 4 hours of incubation, helper phages were added, and the E. coli (TG1 strain) were allowed to produce phages overnight. Next, phage solution was prepared from the culture supernatant. The prepared phage solution was mixed with FGFR3 solution and allowed to react overnight at 4° C. (Table 9: Panning Round 2). After the reaction, the bound phages were eluted. Phage solution prepared in the same way was mixed with FGFR3 solution and allowed to react at 4° C. for 1 hour (Table 9: Panning Round 3). After the reaction, the bound phages were eluted. This operation was further repeated, and after Panning Round 4, the bound phages were eluted. Note that as the rounds proceeded, the number of washes with PBS-T was increased. (Table 9). The titer of the Output phage in each round was also determined. The titer of phage was determined from the number of colonies obtained by incubating the E. coli TG1 strain contacted with the phage at 37° C. overnight. The phage library eluted after panning of Example 7 (Table 9: Input phage (Round 4)) was subjected to Human IgG Fc-immobilized plate, and negative selection was performed by collecting unbound phages. The phage library was then acted to FGFR3 prepared to concentrations of 100 nM, 10 nM, and 1 nM. Bound phages were then collected. The genomic DNA of the collected phages was extracted, samples were prepared according to Illumina's protocol for Miseq, and a comprehensive analysis of the phage genomic DNA was performed. Among the sequences obtained, 20 sequences high incidence rates were selected (Table 11). The yeast cells acquired in the screening of Example 8 were seeded onto SDCAA agar plates and cultured. Fourteen single colonies formed on the agar plates were randomly selected, and for each clone, the peptide DNA sequence incorporated into the yeast expression plasmid was analyzed using the Sanger method (Table 12).

[3] = test system: iPS-hFB; test: Differentiation induction of iPS cells into cardiomyocytes: observation of beating cell clusters; details: Example 3: 0.05 μM peptide + Activin A on Day 1, no bFGF
[4] = test system: iPS-hFB; test: Differentiation induction of iPS cells into cardiomyocytes: RT-qPCR of cardiomyocyte markers cTNT and Actinin; details: Day 23
[5] = Example 3, protocol 5, 0.05 μM, compared to protocols 1, 3, 4 or 6

Row | Molecule | Frequency [1] | 1 nM Num. of reads [2] | 10 nM Num. of reads [2] | 100 nM Num. of reads [2] | 1 nM Ranking [2] | 10 nM Ranking [2] | 100 nM Ranking [2] | also measured
1 | CAAELAALEAELAALEGPSRVGSRRRGKLNLLKYKLHGLKLAC [FGFR_Y13] | 1 |  |  |  |  |  |  | 
2 | CAVELYALHRELYALYGGGGGGS----KLYALYLKLLALQLAC [FGFR_Y05] | 1 |  |  |  |  |  |  | 
3 | CAAELAALEAELAALEGKEHPTLRTSGKLLHLKLKLHELKRAC [F3-100n131] |  | 2801 | 2079 | 2648 | 3 | 4 | 3 | 
4 | CAHHLASLEYDLAILEGGDGGGG----HLARLKRQLAELKNAC [FGFR_Y16] | 1 |  |  |  |  |  |  | 
5 | CAQELRALLRELQALGGGGGGGG----KLGALVFKLYALMLAC [FGFR_Y15] | 1 |  |  |  |  |  |  | 
6 | CAAELAALEAELAALEGRTFTIGEVKGKLQGLIMKLHHLKDAC [F3-100n116] |  | 1895 | 2291 | 3236 | 6 | 2 | 1 | 
7 | CAAELAALEAELAALEGVRPETMSQVGKLLVLKHRLGQLKRAC [F3-100n9] |  | 3326 | 2152 | 2566 | 1 | 3 | 4 | 
8 | CAAELAALEAELAALEGGAPVTIMGVGKLMVLKEKLRNLKDAC [F3-100n16] |  | 1095 | 647 | 775 | 16 | 26 | 33 | 
9 | CAAELAALEAELAALEGGRTPVVTTMGKLMGLKLKLQQLKRAC [F3-100n322] |  | 1234 | 813 | 1061 | 12 | 16 | 18 | 
10 | CAAELAALEAELAALEGPPRPHLPPLGKLFLLKFKLYLLKGAC [FGFR_Y09] | 1 |  |  |  |  |  |  | 
11 | CAAELAALEAELAALEGEVNMTRARAGKLLVLKVKLHGLKQAC [F3-100n504] |  | 1062 | 741 | 1006 | 18 | 21 | 21 | 
12 | CAAELAALEAELAALEGGGGGGG----FLRNLHIKLYLLQFAC [FGFR_Y07] | 1 |  |  |  |  |  |  | 
13 | CAKELLALKRELKALQGGGGGGG----KLRALQLKLYALLLAC [FGFR_Y11] | 2 |  |  |  |  |  |  | 
14 | CAAELAALEAELAALEGKDFRTIELVGKLVLLKYKLNNLKEAC [F3-100n548] |  | 1248 | 873 | 1088 | 11 | 13 | 17 | 
15 | CALELLALRGELEALRGGGGGGG----KLGALHLKLFALQWAC [FGFR_Y08] | 1 |  |  |  |  |  |  | 
16 | CARELQALGKELKALKGGGGGGG----KLRALQLKLYALQVAC [FGFR_Y10] | 1 |  |  |  |  |  |  | 

Row | Molecule | Frequency [1] | 1 nM Num. of reads [2] | 10 nM Num. of reads [2] | 100 nM Num. of reads [2] | 1 nM Ranking [2] | 10 nM Ranking [2] | 100 nM Ranking [2] | also measured
17 | CAAELAALEAELAALEGGGGGGG----KLMDLHYQLYNLFIAC [FGFR_Y01] | 1 |  |  |  |  |  |  | 
18 | CAAELAALEAELAALEGVKELTLGTVGKLMSLKYKLWSLKQAC [F3-100n410] |  | 2547 | 1717 | 2279 | 4 | 5 | 5 | 
19 | CAAELAALEAELAALEGGAFLTVGRAGKLMMLKQKLVRLKCAC [F3-100n117] |  | 1355 | 948 | 1188 | 9 | 9 | 12 | 
20 | CAAELAALEAELAALEGEGMSTLNRQGKLSVLKSKLLWLKHAC [F3-100n228] |  | 2006 | 1447 | 1753 | 5 | 6 | 7 | 
21 | CAAELAALEAELAALEVGRVKTLGRYGKLMVLKHQLRNLKCAC [F3-100n161] |  | 1045 | 903 | 1261 | 19 | 10 | 9 | 
22 | CARELQALLKELQALGGGGGGGG----KLLALFVKLYALRLAC [FGFR_Y02] | 1 |  |  |  |  |  |  | 
23 | CARELRALRRELRALQGGGGGGG----KLHALHRKLFALMVAC [FGFR_Y06] | 1 |  |  |  |  |  |  | 
24 | CAQELVALHMELRALGGGGGGGG----KLQALYLKLFALDHAC [FGFR_Y04] | 1 |  |  |  |  |  |  | 
25 | CAAELAALEAELAALEGLDYHTVLSTGKLMVLKRKLNILKLAC [F3-100n250] |  | 966 | 856 | 1096 | 20 | 14 | 16 | 
26 | CAAELAALEAELAALEGETNMTVLMTGKLLVLKHKLEHLKWAC [F3-100n386] |  | 1216 | 781 | 1028 | 13 | 18 | 19 | 
27 | CPRELEALRRELGALMGGGGGGG----KLNALMLKLYALHNAC [FGFR_Y14] | 1 |  |  |  |  |  |  | 
28 | CAAELAALEAELAALEGLHTLTLMQTGKLLVLKMKLRELKWAC [F3-100n192] |  | 1100 | 707 | 857 | 15 | 23 | 28 | 
29 | CAAELAALEAELAALEGSTARTLMQVGKLEMLKYKLLELKCAC [F3-100n3] |  | 1084 | 613 | 850 | 17 | 29 | 29 | 
30 | CAAELAALEAELAALEGASTPTLESRGKLGSLIFKLRQLKVAC [F3-100n50] |  | 1149 | 820 | 1121 | 14 | 15 | 14 | 
31 | B1 |  |  |  |  |  |  |  | day on which beating cell clusters were observed [3]: 11 days; ACTN2 expression level [4, 5]: significantly increased; cTNT expression level [4, 5]: significantly increased; gene expression levels (cTNT, ACTN2) ([4]; Example 4: peptide in combination with bFGF, compared to conventional protocol 1): significantly increased
